Experimental data as given in patent US20120225093A1, “Abrogating HIV-1 Infection via Drug-Induced Reactivation of Apoptosis” (UNIVERSITY OF MEDICINE AND DENTISTRY OF NEW JERSEY, priority 2010, published 2012).

Experiments:
HIV-1 LTR = experiment: RNase protection assay of pLTR-FF transcripts (elongation, RNA stability); type: cell-based
Experimental: RPA was performed with 10 μg of cytoplasmic RNA and 5 μg of nuclear RNA, using the RPAIII kit from Ambion (Austin, Tex.) according to the manufacturer's instructions. Synthesis of radiolabeled RNA and protection assays were performed as described in Young et al. Mol Cell Biol 2003, 23:6373-6384. To generate antisense RNA probe against the HIV-1 major splice site, firefly luciferase and Renilla luciferase pBSII-KS+HIV (+80-341), pSP-luc and pSP-rluc were linearized with HindIII, XbaI and BsaI, respectively. The resulting probes were 309, 390 and 245 nt long, respectively. […]
Results of the deletion analysis implied that sensitivity to the drugs is conferred by the promoter or another feature in the HIV-1 LTR. […] Nuclear and cytoplasmic RNA was analyzed in RNase protection assays using a probe complementary to the promoter-proximal region of HIV transcripts (FIG. 6A). […]
To examine the possibility that the drugs decrease the stability of RNA transcribed from the HIV promoter, cells transfected with pLTR-FF were incubated in the presence or absence of CPX. Actinomycin D was added to some cultures 12 hr later to block further transcription, and FF RNA was monitored by RPA at intervals thereafter (FIG. 6D, top panel). FF RNA levels were quantified and normalized to the levels at 12 hr (FIG. 6D, bottom panel). […]

uninfected PBMCs = experiment: TUNEL apoptosis in uninfected PBMC cultures; type: cell-based, human; conditions: CPX 30 μM
Experimental: Uninfected PBMCs were co-incubated with infected PBMC stock in 24-well microplates at 2 ml/well Medium B, at a 10:1 ratio of uninfected-to-infected cells, and a total cell number of 1×10^6. Cultures were maintained and assayed for 6 consecutive days. CPX or Agent P2 was added at the time of inoculation or 12 hr later. Leaving the cell layer undisturbed, half the medium in each well was replenished every day, with concurrent adjustment of compound concentration. On each day during the 6-day experiments, a set of wells was harvested: the cells were processed for determination of viability and apoptosis, and the cell-free supernatants were stored at −80° C. for p24 and viral RNA measurements. […]
The potential across the mitochondrial membrane of live cells was determined flow-cytometrically with the lipophilic cationic fluorochrome JC-1 (5,5′,6,6′-tetrachloro-1,1′,3,3′-tetraethylbenzimidazolcarbocyanine iodide) immediately after sample harvest (BD™ Mitoscreen Kit, BD Biosciences; San Diego, Calif.). DNA fragmentation was quantified flow-cytometrically, using a TUNEL (terminal deoxynucleotide transferase dUTP nick end-labeling) assay (APO-BRDU™; Phoenix Flow Systems; San Diego, Calif.) and a dual-color assay for annexin V binding and 7-AAD exclusion (Annexin V-PE 7-AAD Apoptosis Detection Kit I™; BD Biosciences Pharmingen, San Jose, Calif.). […]

IFN-γ = IFN-γ secretion by PBMC cultures (cytometric bead array); type: cell-based, human; conditions: CPX added at inoculation or 12 hr later; Phase I
Experimental: Uninfected PBMCs were co-incubated with infected PBMC stock in 24-well microplates at 2 ml/well Medium B, at a 10:1 ratio of uninfected-to-infected cells, and a total cell number of 1×10^6. Cultures were maintained and assayed for 6 consecutive days. CPX or Agent P2 was added at the time of inoculation or 12 hr later. Leaving the cell layer undisturbed, half the medium in each well was replenished every day, with concurrent adjustment of compound concentration. On each day during the 6-day experiments, a set of wells was harvested: the cells were processed for determination of viability and apoptosis, and the cell-free supernatants were stored at −80° C. for p24 and viral RNA measurements. Experiments were performed at least in duplicate and repeated at least twice.
p24 core antigen in the supernatant was quantified by ELISA (Retrotek HIV-1 p24™; ZeptoMetrix Corp.; Buffalo, N.Y.). HIV-1 RNA copy number in the supernatant was determined with a PCR-based and FDA-approved assay (Amplicor HIV-1 Monitor™; Roche Diagnostics Corp.; Indianapolis, Ind.). IFN-γ and IL-10 in the supernatant were determined by cytometric bead array (Human Th1/Th2 Cytokine Kit II™; BD Biosciences Pharmingen, San Jose, Calif.).
To further assess the cellular effects of CPX, the secretion of interferon (IFN)-γ and interleukin (IL)-10 was measured. […]

For `Cc1cc(C2CCCCC2)n(O)c(=O)c1` [CPX, 6-cyclohexyl-1-hydroxy-4-methylpyridin-2[1H]-one], which “rate of FF RNA decay” value (HIV-1 LTR; actinomycin D added at 12 hr) is on record?
Its value is “not affected”.

What about the “FF mRNA level at 12 hr post-transfection, less than control” value (HIV-1 LTR; in the presence of CPX) of the same compound?
The value was roughly 50%.

What about the “apoptotic (TUNEL-positive) cells” value (uninfected PBMCs; 144 hr) of the same compound?
Its value is 24.1% (±3.2%).

What about the “change in proportion of TUNEL-positive PBMCs” value (uninfected PBMCs; uninfected cultures) of the same compound?
The value was “roughly doubled”.

And the “HIV-induced rise of IFN-γ” value (IFN-γ)?
The value was “abolished the HIV-induced cytokine boost”.
